IC50 data for 12 molecules are collected here from US20090018134A1, “Compounds - 945” (AstraZeneca AB, priority 2007, published 2009).

Structures are written as SMILES.

In one experiment the target is T1, mTOR (Homo sapiens, UniProt P42345).
T1 construct: FLAG; made in house
T1 sequence (P42345 1362-2549): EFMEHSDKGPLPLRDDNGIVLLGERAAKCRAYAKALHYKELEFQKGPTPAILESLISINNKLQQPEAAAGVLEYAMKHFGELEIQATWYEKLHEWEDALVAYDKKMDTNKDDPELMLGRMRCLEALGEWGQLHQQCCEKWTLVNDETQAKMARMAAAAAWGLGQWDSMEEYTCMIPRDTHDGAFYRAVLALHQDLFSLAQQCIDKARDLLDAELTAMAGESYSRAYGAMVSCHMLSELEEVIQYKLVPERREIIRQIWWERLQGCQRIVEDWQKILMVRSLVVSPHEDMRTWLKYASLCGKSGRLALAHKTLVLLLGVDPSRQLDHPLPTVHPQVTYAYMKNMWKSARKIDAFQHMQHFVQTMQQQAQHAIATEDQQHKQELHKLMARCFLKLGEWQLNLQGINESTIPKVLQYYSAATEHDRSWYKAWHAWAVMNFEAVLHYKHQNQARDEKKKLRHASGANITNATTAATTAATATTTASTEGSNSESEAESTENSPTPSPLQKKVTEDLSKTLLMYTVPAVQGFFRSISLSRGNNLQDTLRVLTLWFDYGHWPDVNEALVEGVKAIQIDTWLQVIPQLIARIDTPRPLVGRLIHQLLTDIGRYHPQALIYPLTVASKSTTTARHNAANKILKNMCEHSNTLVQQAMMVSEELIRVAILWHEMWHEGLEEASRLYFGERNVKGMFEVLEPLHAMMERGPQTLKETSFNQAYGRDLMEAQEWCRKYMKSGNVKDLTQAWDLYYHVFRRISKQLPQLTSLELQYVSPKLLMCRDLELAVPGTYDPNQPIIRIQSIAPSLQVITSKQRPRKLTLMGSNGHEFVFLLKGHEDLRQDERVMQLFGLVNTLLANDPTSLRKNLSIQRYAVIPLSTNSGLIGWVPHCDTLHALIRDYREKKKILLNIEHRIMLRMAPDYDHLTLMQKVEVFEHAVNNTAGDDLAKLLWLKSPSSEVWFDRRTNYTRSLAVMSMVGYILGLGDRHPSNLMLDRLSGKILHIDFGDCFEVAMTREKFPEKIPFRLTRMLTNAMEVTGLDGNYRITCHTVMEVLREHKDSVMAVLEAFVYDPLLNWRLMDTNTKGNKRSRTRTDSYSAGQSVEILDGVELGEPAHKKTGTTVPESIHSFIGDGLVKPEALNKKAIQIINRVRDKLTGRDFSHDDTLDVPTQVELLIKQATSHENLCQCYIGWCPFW
Put plainly: In Vitro mTOR Kinase Assay (Echo), Test (a)(ii). It is filed as biochemical.
Details: not given
In short, it runs like this:
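Inhibition expressed as IC50 from an AlphaScreen read-out: phospho-T389 p70 S6K antibody plus streptavidin donor/protein A acceptor beads, left overnight in the dark. The kinase reaction ran 2 h at room temperature, then was stopped with EDTA. Enzyme: FLAG-purified mTOR 1362-2549 fragment from stable HEK293 cells.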
Molecule `C[C@H]1COCCN1c1cc(C2(S(=O)(=O)c3ccccc3)CC2)nc(-c2ccc(NC(=O)NCCCl)cc2)n1` [Example 36ee, 1-[4-[4-[1-(benzenesulfonyl)cyclopropyl]-6-[(3S)-3-methylmorpholin-4-yl]pyrimidin-2-yl]phenyl]-3-(2-chloroethyl)urea] showed an IC50 of 9.58 nM.

Still in this experiment, the particulars now being: read-out: mTOR Kinase Assay (Echo).
Turning to `CCCNC(=O)Nc1ccc(-c2nc(N3CCOC[C@@H]3C)cc(C3(S(=O)(=O)C4CC4)CC3)n2)cc1` [Example 3h, 3-[4-[4-(1-cyclopropylsulfonylcyclopropyl)-6-[(3S)-3-methylmorpholin-4-yl]pyrimidin-2-yl]phenyl]-1-propyl-urea], the IC50 was found to be 16.5 nM.

The same experiment, now with this note: table of enzyme assay Test (a)(ii); read-out: Test (a)(ii) IC50.
With `CC(C)CNC(=O)Nc1ccc(-c2nc(N3CCOC[C@@H]3C)cc(C3(S(=O)(=O)CCCO)CC3)n2)cc1` [Example 31d, 1-[4-[4-[1-(3-hydroxypropylsulfonyl)cyclopropyl]-6-[(3S)-3-methylmorpholin-4-yl]pyrimidin-2-yl]phenyl]-3-(2-methylpropyl)urea], the IC50 came out at 9.55 nM.

As for `C[C@H]1COCCN1c1cc(C2(S(=O)(=O)c3ccc(C(N)=O)cc3Cl)CC2)nc(-c2ccc(NC(=O)NCCF)cc2)n1` [Example 85c, 3-chloro-4-[1-[2-[4-(2-fluoroethylcarbamoylamino)phenyl]-6-[(3S)-3-methylmorpholin-4-yl]pyrimidin-4-yl]cyclopropyl]sulfonylbenzamide], the IC50 came to 5.09 nM.

For `CNC(=O)Nc1ccc(-c2nc(N3CCOC[C@@H]3C)cc(C3(S(=O)(=O)c4cncc(F)c4)CC3)n2)cc1` [Example 17b, 1-[4-[4-[1-(5-fluoropyridin-3-yl)sulfonylcyclopropyl]-6-[(3S)-3-methylmorpholin-4-yl]pyrimidin-2-yl]phenyl]-3-methylurea], the IC50 is 0.584 nM.

`CCNC(=O)Nc1ccc(-c2nc(N3CCOCC3)cc(C3(S(=O)(=O)c4ccncc4)CC3)n2)cc1` [Example 36au, 1-ethyl-3-[4-[4-morpholin-4-yl-6-(1-pyridin-4-ylsulfonylcyclopropyl)pyrimidin-2-yl]phenyl]urea]: the IC50 is 12.1 nM.

As for `C[C@H]1COC[C@H](C)N1c1cc(C2(S(C)(=O)=O)CC2)nc(-c2ccc(NC(=O)NCCF)cc2)n1` [Example 91c, 1-[4-[4-[(3S,5S)-3,5-dimethylmorpholin-4-yl]-6-(1-methylsulfonylcyclopropyl)pyrimidin-2-yl]phenyl]-3-(2-fluoroethyl)urea], the IC50 was found to be 3.68 nM.

With `CCNC(=O)Nc1ccc(-c2nc(N3CCOC[C@@H]3C)cc(C3(S(=O)(=O)c4nc(C)c(C)s4)CC3)n2)cc1` [Example 80e, 3-[4-[4-[1-[(4,5-dimethyl-1,3-thiazol-2-yl)sulfonyl]cyclopropyl]-6-[(3S)-3-methylmorpholin-4-yl]pyrimidin-2-yl]phenyl]-1-ethylurea], the IC50 stood at 14.3 nM.

Regarding `CNC(=O)Nc1ccc(-c2nc(N3CCOC[C@@H]3C)cc(C3(S(=O)(=O)CCCO)CC3)n2)cc1` [Example 31g, 1-[4-[4-[1-(3-hydroxypropylsulfonyl)cyclopropyl]-6-[(3S)-3-methylmorpholin-4-yl]pyrimidin-2-yl]phenyl]-3-methylurea], the IC50 stood at 3.23 nM.

On to `CC[C@H]1COCCN1c1cc(C2(S(=O)(=O)c3ccccc3)CC2)nc(-c2ccc(NC(=O)N[C@@H](C)CO)cc2)n1` [Example 74f, 1-[4-[4-[1-(benzenesulfonyl)cyclopropyl]-6-[(3S)-3-ethylmorpholin-4-yl]pyrimidin-2-yl]phenyl]-3-[(2S)-1-hydroxypropan-2-yl]urea], for which the IC50 worked out at 3.99 nM.

In the case of `Cc1ccc(S(=O)(=O)C2(c3cc(N4CCOC[C@@H]4C)nc(-c4ccc(NC(=O)Nc5cnn(C)c5)cc4)n3)CCC2)cc1` [Example 68a], the IC50 is 1.74 nM.

Turning to `Cc1csc(S(=O)(=O)C2(c3cc(N4CCOC[C@@H]4C)nc(-c4ccc(NC(=O)NCCC#N)cc4)n3)CC2)n1` [Example 36o, 3-(2-cyanoethyl)-1-[4-[4-[(3S)-3-methylmorpholin-4-yl]-6-[1-[(4-methyl-1,3-thiazol-2-yl)sulfonyl]cyclopropyl]pyrimidin-2-yl]phenyl]urea], the IC50 is 3.58 nM.
